As a reminder, the IC50 is the midpoint of a concentration-inhibition curve.

Sequence of human P2X7 receptor (Q99572 whole entry): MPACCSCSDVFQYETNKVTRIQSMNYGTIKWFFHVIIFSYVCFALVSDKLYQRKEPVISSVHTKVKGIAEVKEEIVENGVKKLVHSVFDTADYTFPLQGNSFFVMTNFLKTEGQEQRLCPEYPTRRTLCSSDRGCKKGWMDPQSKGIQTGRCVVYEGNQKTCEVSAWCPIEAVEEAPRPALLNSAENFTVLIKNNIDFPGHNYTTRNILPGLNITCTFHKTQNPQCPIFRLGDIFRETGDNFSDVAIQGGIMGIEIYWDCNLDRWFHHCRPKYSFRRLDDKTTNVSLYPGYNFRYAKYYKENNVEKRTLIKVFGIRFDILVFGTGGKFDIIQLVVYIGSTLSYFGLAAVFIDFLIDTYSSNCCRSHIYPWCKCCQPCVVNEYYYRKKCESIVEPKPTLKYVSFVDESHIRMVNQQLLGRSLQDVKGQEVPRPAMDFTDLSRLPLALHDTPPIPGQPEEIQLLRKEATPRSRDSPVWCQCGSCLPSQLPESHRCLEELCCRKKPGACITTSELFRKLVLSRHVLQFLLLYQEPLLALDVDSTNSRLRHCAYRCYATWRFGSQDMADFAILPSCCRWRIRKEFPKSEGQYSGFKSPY

The first test has as its target human P2X7 receptor (Homo sapiens (Human), UniProt Q99572). Briefly: Pore permeation assay (YO PRO dye uptake). It counts as cell-based.
Details: not given
Here is the method: Agonist-induced pore formation was determined by measuring cellular uptake of YO PRO fluorescence dye in HEK293 transfected with human P2X7 receptor. A HEK293 cell over expressing human P2X7 was harvested using HQTase reagent to detach the cells from T75 cm flask. The harvested cells are centrifuged @1200 rpm for 5 min at room temperature. The viability of cells was determined by Trypan blue dye and the cells are plated @10,000 cell/well in 50 ul volume in a 384W BD Poly lysine coated plate and incubated overnight at 37 C. […] The plate was centrifuged at 1000 rpm for 5 seconds and incubated at room temperature for 30 minutes. The uptake of YO PRO dye into the cells was measured using Envision Fluorescence plate reader instrument (Perkin Elmer).
`COCCn1cc(C(=O)NC[C@@]2(O)CCC[C@@H](C)C2)c2c(Cl)cccc21` [Compound 15, 4-Chloro-1-(2-methoxy-ethyl)-1H-indole-3-carboxylic acid ((1R,3R)-1-hydroxy-3-methyl-cyclohexylmethyl)-amide] registered an IC50 of 10 to 100 nM. Still for that read-out and setting: the value for `O=C(N[C@@H](C1CCCCC1)C(F)(F)F)c1cn(C2COC2)c2cccc(Cl)c12` [Compound 52, 4-Chloro-1-oxetan-3-yl-1H-indole-3-carboxylic acid ((S)-1-cyclohexyl-2,2,2-trifluoro-ethyl)-amide] was 500 to 999 nM. `CC1CC(O)(CNC(=O)c2cn(C3COC3)c3cccc(Cl)c23)CCC1(F)F` (stereo not drawn) [Compound 46, 4-chloro-N-((4,4-difluoro-1-hydroxy-3-methylcyclohexyl)methyl)-1-(oxetan-3-yl)-1H-indole-3-carboxamide]: the IC50 was 101 to 500 nM. Still for that read-out and setting: the value for `COCCn1cc(C(=O)NCc2ccccc2F)c2c(Cl)cccc21` [Compound 25, 4-Chloro-1-(2-methoxy-ethyl)-1H-indole-3-carboxylic acid 2-fluoro-benzylamide] was 500 to 999 nM.

`O=C(NC(CCO)C1CCCCC1)c1cn(C2CCOC2)c2cccc(Cl)c12` (stereo not drawn) [Compound 110, 4-Chloro-1-(tetrahydro-furan-3-yl)-1H-indole-3-carboxylic acid (1-cyclohexyl-3-hydroxy-propyl)-amide] returned an IC50 of 101 to 500 nM.

Staying with this test, now noted: HEK293 transfected with human P2X7; BzATP 10 uM; YO PRO dye uptake; read-out: hP2X7 IC50.
Regarding `CC(C)(NC(=O)c1cn(C2COC2)c2cccc(Cl)c12)[C@]12C[C@H]3C[C@H](C[C@H](C3)C1)C2` [Compound 54, 4-Chloro-1-oxetan-3-yl-1H-indole-3-carboxylic acid (1-adamantan-1-yl-1-methyl-ethyl)-amide], the IC50 is 101 to 500 nM. Same read-out and setting: the figure for `COCCn1cc(C(=O)NCc2ccc(C(F)(F)F)cc2)c2c(Cl)cccc21` [Compound 26, 4-Chloro-1-(2-methoxy-ethyl)-1H-indole-3-carboxylic acid 4-trifluoro methyl-benzylamide] is greater than 1000 nM; for `O=C(NCC1(O)CCCC(C(F)(F)F)C1)c1cn(CC2CCCO2)c2cccc(Cl)c12` (stereo not drawn) [Compound 136, 4-chloro-N-((1-hydroxy-3-(trifluoromethyl)cyclohexyl)methyl)-1-((tetrahydrofuran-2-yl)methyl)-1H-indole-3-carboxamide] it is greater than 1000 nM. Same read-out and setting: the value for `CC1(CCNC(=O)c2cn(C3COC3)c3cccc(Cl)c23)OCCO1` [Compound 71, 4-Chloro-1-oxetan-3-yl-1H-indole-3-carboxylic acid [2-(2-methyl-dioxolan-2-yl)-ethyl]-amide] was greater than 1000 nM.

`CN(C)C(CNC(=O)c1cn(C2CCOC2)c2cccc(Cl)c12)C1CCCCC1` (stereo not drawn) [Compound 111, 4-Chloro-1-(tetrahydro-furan-3-yl)-1H-indole-3-carboxylic acid (2-cyclohexyl-2-dimethylamino-ethyl)-amide]: the IC50 is greater than 1000 nM.

“4-Chloro-1-(tetrahydro-furan-3-yl)-1H-indole-3-carboxylic acid (2-cyclopentyl-2-hydroxy-propyl)-amide [Compound 102]”: the IC50 was greater than 1000 nM. Take `O=C(NC(C1CCCCC1)C(F)(F)F)c1cn(C2COC2)c2cccc(Cl)c12` (stereo not drawn) [Compound 43, 4-chloro-N-(1-cyclohexyl-2,2,2-trifluoroethyl)-1-(oxetan-3-yl)-1H-indole-3-carboxamide]: the IC50 was greater than 1000 nM.

The values above are taken from patent US10323000B2, “Indole derivatives and their use in neurodegenerative diseases” (priority 2014, dated 2019).
